Each structure is given as a SMILES string. A value given as a limit tells only on which side of the number the result lay.

Experimental findings from patent publication US20250171437A1 (Agios Pharmaceuticals,Inc., priority 2022, published 2025) are described below.

One assay deals with T1, human PAH with the R408W mutation (A375 R408W cells) (Homo sapiens, UniProt P00439, R408W).
T1 construct: expressed in transfected cells
T1 sequence (P00439 1-452 R408W): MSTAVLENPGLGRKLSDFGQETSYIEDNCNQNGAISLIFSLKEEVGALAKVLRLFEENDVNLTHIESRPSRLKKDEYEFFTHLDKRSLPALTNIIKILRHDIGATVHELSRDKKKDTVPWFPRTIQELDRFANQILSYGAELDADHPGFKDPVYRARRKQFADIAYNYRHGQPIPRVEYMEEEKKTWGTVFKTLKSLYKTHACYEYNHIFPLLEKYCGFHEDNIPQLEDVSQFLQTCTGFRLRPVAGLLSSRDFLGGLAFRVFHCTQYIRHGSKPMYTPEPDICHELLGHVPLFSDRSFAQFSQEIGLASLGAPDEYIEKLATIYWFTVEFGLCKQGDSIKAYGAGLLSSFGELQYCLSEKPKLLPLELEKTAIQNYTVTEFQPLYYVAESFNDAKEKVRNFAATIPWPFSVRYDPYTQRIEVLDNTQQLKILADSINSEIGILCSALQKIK
The assay can be described thus: Cell Based Phenylalanine Flux Assay. Conditions: A375 R408W cells; 24 hrs with compound, then 20 μM sepiapterin and 800 μM 13C9,15N-Phenylalanine for 4 hours; 13C-Tyrosine by LC-MS; average where tested multiple times. The procedure, abridged: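 AC50 is derived from LC-MS of 13C-tyrosine in the media after a 4 h pulse of 800 μM 13C9,15N-phenylalanine plus 20 μM sepiapterin. The A375 R408W PAH cells had received duplicate 10-point, 2-fold compound dilutions (0.5% DMSO) for 24 h beforehand.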
The term AC50 denotes the concentration giving half of the maximal activity seen. With `O=C(c1ocnc1CC(F)F)N1CCc2[nH]cnc2[C@H]1c1nc2ccccc2o1` [Example 873, (S)-(4-(benzo[d]oxazol-2-yl)-6,7-dihydro-1H-imidazo[4,5-c]pyridin-5(4H)-yl)(4-(2,2-difluoroethyl)oxazol-5-yl)methanone], the AC50 was not above 500 nM.
`O=C(c1ocnc1C(F)F)N1CCc2[nH]cnc2[C@H]1c1nc2c(F)cc(F)cc2o1` [Example 301, (S)-(4-(4,6-difluorobenzo[d]oxazol-2-yl)-6,7-dihydro-1H-imidazo[4,5-c]pyridin-5(4H)-yl)(4-(difluoromethyl)oxazol-5-yl)methanone]: the AC50 was not above 500 nM.
`Cc1ccc2oc([C@H]3c4nc[nH]c4CCN3C(=O)c3nnc(-c4cnn(C)c4)o3)nc2c1` [Example 112, (R)-(5-(1-methyl-1H-pyrazol-4-yl)-1,3,4-oxadiazol-2-yl)(4-(5-methylbenzo[d]oxazol-2-yl)-6,7-dihydro-1H-imidazo[4,5-c]pyridin-5(4H)-yl)methanone]: the AC50 is 1000 to 5000 nM.
Still for that read-out and setting: the figure for `Cc1ccc2oc([C@@H]3c4nc[nH]c4CCN3C(=O)c3nnc(-c4cn[nH]c4)o3)nc2c1` [Example 491, (S)-(5-(1H-pyrazol-4-yl)-1,3,4-oxadiazol-2-yl)(4-(5-methylbenzo[d]oxazol-2-yl)-6,7-dihydro-1H-imidazo[4,5-c]pyridin-5(4H)-yl)methanone] is 500 to 1000 nM; for `Cc1nc([C@H](C)O)oc1C(=O)N1CCc2[nH]cnc2[C@H]1c1nc2cccc(F)c2o1` [Example 247, ((S)-4-(7-fluorobenzo[d]oxazol-2-yl)-6,7-dihydro-1H-imidazo[4,5-c]pyridin-5(4H)-yl)(2-((S)-1-hydroxyethyl)-4-methyloxazol-5-yl)methanone] it is 500 to 1000 nM; for `CC(C)(O)c1nc(C(F)F)c(C(=O)N2CCc3[nH]cnc3[C@H]2c2nc3cccc(Br)c3o2)o1` [Example 460, (S)-(4-(7-bromobenzo[d]oxazol-2-yl)-6,7-dihydro-1H-imidazo[4,5-c]pyridin-5(4H)-yl)(4-(difluoromethyl)-2-(2-hydroxypropan-2-yl)oxazol-5-yl)methanone] it is not above 500 nM.
On the same count and under the same terms, the figure for `Cn1nc(C(F)F)nc1C(=O)N1CCc2[nH]cnc2[C@H]1c1nc2cc(F)cc(F)c2o1` [Example 577, (S)-(4-(5,7-difluorobenzo[d]oxazol-2-yl)-6,7-dihydro-1H-imidazo[4,5-c]pyridin-5(4H)-yl)(3-(difluoromethyl)-1-methyl-1H-1,2,4-triazol-5-yl)methanone] is 500 to 1000 nM; for `CC(C)(O)c1nc(C(F)(F)F)c(C(=O)N2CCc3[nH]cnc3[C@@H]2c2nc3cc(F)ccc3o2)o1` [Example 46, (R)-(4-(5-fluorobenzo[d]oxazol-2-yl)-6,7-dihydro-1H-imidazo[4,5-c]pyridin-5(4H)-yl)(2-(2-hydroxypropan-2-yl)-4-(trifluoromethyl)oxazol-5-yl)methanone] it is not above 500 nM; for `CN(C)Cc1cn2ncc(C(=O)N3CCc4[nH]cnc4[C@H]3c3nc4cc(F)ccc4o3)c2cc1Cl` [Example 203, (S)-(5-chloro-6-((dimethylamino)methyl)pyrazolo[1,5-a]pyridin-3-yl)(4-(5-fluorobenzo[d]oxazol-2-yl)-6,7-dihydro-1H-imidazo[4,5-c]pyridin-5(4H)-yl)methanonee] it is 500 to 1000 nM.
Consider `O=C(c1oc(C2(O)CC2)nc1C(F)F)N1CCc2[nH]cnc2[C@H]1c1nc2ccc(F)cc2o1` [Example 237, (S)-(4-(difluoromethyl)-2-(1-hydroxycyclopropyl)oxazol-5-yl)(4-(6-fluorobenzo[d]oxazol-2-yl)-6,7-dihydro-1H-imidazo[4,5-c]pyridin-5(4H)-yl)methanone], for which the concentration at half-maximal activity (AC50) is 1000 to 5000 nM.
`O=C(c1nnc(C2CC2)o1)N1CCc2[nH]cnc2[C@@H]1c1nc2c(F)ccc(F)c2o1` [Example 856, (R)-(5-cyclopropyl-1,3,4-oxadiazol-2-yl)(4-(4,7-difluorobenzo[d]oxazol-2-yl)-6,7-dihydro-1H-imidazo[4,5-c]pyridin-5(4H)-yl)methanone]: the AC50 was in the range of 500 to 1000 nM.
In the case of `O=C(c1nnc(-c2ccccn2)o1)N1CCc2[nH]cnc2[C@H]1c1nc2ccccc2o1` [Example 583, (S)-(4-(benzo[d]oxazol-2-yl)-6,7-dihydro-1H-imidazo[4,5-c]pyridin-5(4H)-yl)(5-(pyridin-2-yl)-1,3,4-oxadiazol-2-yl)methanone], the AC50 is not above 500 nM.
Turning to `O=C(CCc1nccs1)N1CCc2[nH]cnc2[C@H]1c1nc2c(F)cccc2o1` [Example 397, (S)-1-(4-(4-fluorobenzo[d]oxazol-2-yl)-6,7-dihydro-1H-imidazo[4,5-c]pyridin-5(4H)-yl)-3-(thiazol-2-yl)propan-1-one], the AC50 fell in the range of 500 to 1000 nM.
The same measure, in the same setting: the figure for `O=C(c1oc(-c2ccncn2)nc1C(F)F)N1CCc2[nH]cnc2[C@@H]1c1nc2cc(F)ccc2o1` [Example 525, (R)-(4-(difluoromethyl)-2-(pyrimidin-4-yl)oxazol-5-yl)(4-(5-fluorobenzo[d]oxazol-2-yl)-6,7-dihydro-1H-imidazo[4,5-c]pyridin-5(4H)-yl)methanone] is 1000 to 5000 nM.
On the same count and under the same terms, the figure for `O=C(c1cnn2ccccc12)N1Cc2[nH]cnc2[C@H]1c1nc2ccccc2o1` [Example 929, (S)-(4-(benzo[d]oxazol-2-yl)-4,6-dihydropyrrolo[3,4-d]imidazol-5(1H)-yl)(pyrazolo[1,5-a]pyridin-3-yl)methanone] is 1000 to 5000 nM.
Regarding `COc1cccc2nc([C@@H]3c4nc[nH]c4CCN3C(=O)c3ocnc3C(F)F)oc12` [Example 457, (S)-(4-(difluoromethyl)oxazol-5-yl)(4-(7-methoxybenzo[d]oxazol-2-yl)-6,7-dihydro-1H-imidazo[4,5-c]pyridin-5(4H)-yl)methanone], the AC50 is not above 500 nM.
Turning to `Cn1cnc(-c2nc(C(F)(F)F)c(C(=O)N3CCc4[nH]cnc4[C@@H]3c3nc4cc(F)ccc4o3)o2)c1` [Example 789, (R)-(4-(5-fluorobenzo[d]oxazol-2-yl)-6,7-dihydro-1H-imidazo[4,5-c]pyridin-5(4H)-yl)(2-(1-methyl-1H-imidazol-4-yl)-4-(trifluoromethyl)oxazol-5-yl)methanone], the AC50 is 1000 to 5000 nM.
Still for that read-out and setting: the figure for `Cc1ccc2oc([C@H]3c4nc[nH]c4CCN3C(=O)c3nnc(-c4ccccn4)o3)nc2c1` [Example 98, (R)-(4-(5-methylbenzo[d]oxazol-2-yl)-6,7-dihydro-1H-imidazo[4,5-c]pyridin-5(4H)-yl)(5-(pyridin-2-yl)-1,3,4-oxadiazol-2-yl)methanone] is 1000 to 5000 nM; for `CN(C)CCc1cn2ncc(C(=O)N3CCc4[nH]cnc4[C@H]3c3nc4cc(F)ccc4o3)c2cc1Cl` [Example 79, (S)-(5-chloro-6-(2-(dimethylamino)ethyl)pyrazolo[1,5-a]pyridin-3-yl)(4-(5-fluorobenzo[d]oxazol-2-yl)-6,7-dihydro-1H-imidazo[4,5-c]pyridin-5(4H)-yl)methanone] it is 500 to 1000 nM; for `Cc1ccc2oc([C@@H]3c4nc[nH]c4CCN3C(=O)c3oc(C(C)(C)O)nc3Br)nc2c1` [Example 407, (S)-(4-bromo-2-(2-hydroxypropan-2-yl)oxazol-5-yl)(4-(5-methylbenzo[d]oxazol-2-yl)-6,7-dihydro-1H-imidazo[4,5-c]pyridin-5(4H)-yl)methanone] it is not above 500 nM.
For `O=C(c1nnc(-c2ccccn2)o1)N1CCc2[nH]cnc2[C@H]1c1nc2c(F)ccc(F)c2o1` [Example 520, (S)-(4-(4,7-difluorobenzo[d]oxazol-2-yl)-6,7-dihydro-1H-imidazo[4,5-c]pyridin-5(4H)-yl)(5-(pyridin-2-yl)-1,3,4-oxadiazol-2-yl)methanone], the AC50 was not above 500 nM.
On to `Cc1nc(C(C)(C)O)oc1C(=O)N1CCc2[nH]cnc2[C@H]1c1nc2c(F)cccc2o1` [Example 259, (S)-(4-(4-fluorobenzo[d]oxazol-2-yl)-6,7-dihydro-1H-imidazo[4,5-c]pyridin-5(4H)-yl)(2-(2-hydroxypropan-2-yl)-4-methyloxazol-5-yl)methanone], for which the AC50 was 500 to 1000 nM.

Staying with this assay, now noted: A375 cells expressing R408W PAH; 24 hrs with compound, then 20 μM sepiapterin and 800 μM 13C9,15N-Phenylalanine for 4 hours; 13C-Tyrosine by LC-MS; average where tested multiple times.
As to `Cn1cc(C(=O)N2CCc3[nH]cnc3C2c2nc3cc(F)ccc3o2)c(Cl)n1` (stereo not shown), the AC50 was 1000 to 5000 nM.
Consider `COCCNc1ccc2c(C(=O)N3CCc4[nH]cnc4C3c3nc4cc(F)ccc4o3)cnn2c1` (stereo not shown), for which the AC50 lay in the range of 1000 to 5000 nM.
For the compound `O=C(C1CN(c2ccccn2)C1)N1CCc2[nH]cnc2C1c1nc2cc(F)ccc2o1` (stereo not shown), the AC50 is not below 5000 nM.
Consider `Cc1ccc2oc(C3c4nc[nH]c4CCN3C(=O)c3cnn4cc(CCN(C)C)ccc34)nc2c1` (stereo not shown), for which the AC50 is 1000 to 5000 nM.
As to `O=C(C1CN(CC(F)(F)F)C1)N1CCc2[nH]cnc2C1c1nc2cc(F)ccc2o1` (stereo not shown), the AC50 lay in the range of 1000 to 5000 nM.
Same read-out and setting: the figure for `Cn1nc(C(C)(C)O)nc1C(=O)N1CCc2[nH]cnc2C1c1nc2cccc(F)c2o1` (stereo not shown) is not below 5000 nM.
The same measure, in the same setting: then `O=C(c1nnc(-c2cnn(C(F)F)c2)o1)N1CCc2[nH]cnc2C1c1nc2cccc(C(F)(F)F)c2o1` (stereo not shown), with 1000 to 5000 nM; and `COC(=O)N1CC(C(=O)N2CCc3[nH]cnc3C2c2nc3cc(F)ccc3o2)C1` (stereo not shown), with 1000 to 5000 nM.
For the compound `CN(C)CCCOc1ccc2c(C(=O)N3CCc4[nH]cnc4C3c3nc4cc(F)ccc4o3)cnn2c1` (stereo not shown), the AC50 was 1000 to 5000 nM.
